Data from publication PMC9447987, “Long-term memory CD8^+ T cells specific for SARS-CoV-2 in individuals who received the BNT162b2 mRNA vaccine” (Nature Communications, 2022).
Read-outs that look alike come from different tables or passages of the source.

Columns and labels:
HLA-A*24:02 = HLA-A*24:02 (Homo sapiens, UniProt P04439, D101N/D140Y/D185E/E176V/E190D/F33S/G103R/G107R/I119L/I121M/I306V/K335N/L105A/L180Q/L300P/N151K/N90K/Q86E/Q94H/R106L/R138H/R89G/T104I/T345S/V100E/W191G/Y123F); experiment: HLA stabilization assay using RMA-S-A2402 cells; format: binding; details: RMA-S-A2402 cells
[1] = test system: HLA-A*24:02-restricted CD8+ T cells; format: cell-based, human; details: for IFN-γ-producing cells among CD8+ T cells (Fig. 1f): bulk T cells
[2] = 14 vaccinated individuals, second time point 11–22 weeks after the first point of analysis

Sequence: VYSSANNCTF [S-VYF10]
- MFI, HLA-A2402 (APC), representative staining (HLA-A*24:02; Suppl. Fig. 3b (for Fig. 4a, 4b), peptide(-) 14.8, 26 °C (Maximum) 32.7): 26.9
- MFI, HLA-A2402 (APC), representative staining (HLA-A*24:02; Suppl. Fig. 3c (for Fig. 4c), peptide(-) 11.7, 26 °C (Maximum) 28.9): 32.7
- number of individuals with specific T cells at both time points [1, 2]: two
- number of individuals with specific T cells at only the first time point [1, 2]: one
- IFNg-producing cells among CD8 T cells (%) ([1]; Fig.6a, donor U-32, 1.430 weeks since 2nd dose of vaccination): 0.080%
- IFNg-producing cells among CD8 T cells (%) ([1]; Fig.6a, donor U-32, 15.290 weeks since 2nd dose of vaccination): 0.000%
- IFNg-producing cells among CD8 T cells (%) ([1]; Fig.6a, donor V1, 19.000 weeks since 2nd dose of vaccination): 0.000%
- IFNg-producing cells among CD8 T cells (%) ([1]; Fig.6a, donor V1, 31.710 weeks since 2nd dose of vaccination): 0.710%
- IFNg-producing cells among CD8 T cells (%) ([1]; Fig.6a, donor V2, 9.570 weeks since 2nd dose of vaccination): 0.330%
- IFNg-producing cells among CD8 T cells (%) ([1]; Fig.6a, donor V2, 31.570 weeks since 2nd dose of vaccination): 0.000%
- IFNg-producing cells among CD8 T cells (%) ([1]; Fig.6a, donor V5, 10.570 weeks since 2nd dose of vaccination): 0.000%
- IFNg-producing cells among CD8 T cells (%) ([1]; Fig.6a, donor V5, 31.710 weeks since 2nd dose of vaccination): 1.030%
- IFNg-producing cells among CD8 T cells (%) ([1]; Fig.6a, donor V6, 9.570 weeks since 2nd dose of vaccination): 0.590%
- IFNg-producing cells among CD8 T cells (%) ([1]; Fig.6a, donor V6, 31.000 weeks since 2nd dose of vaccination): 0.930%
- IFNg-producing cells among CD8 T cells (%) ([1]; Fig.6a, donor V7, 10.140 weeks since 2nd dose of vaccination): 0.000%
- IFNg-producing cells among CD8 T cells (%) ([1]; Fig.6a, donor V7, 31.140 weeks since 2nd dose of vaccination): 0.470%
- IFNg-producing cells among CD8 T cells (%) ([1]; Fig.6a, donor V8, 9.860 weeks since 2nd dose of vaccination): 0.000%
- IFNg-producing cells among CD8 T cells (%) ([1]; Fig.6a, donor V8, 30.140 weeks since 2nd dose of vaccination): 0.160%
- IFNg-producing cells among CD8 T cells (%) ([1]; Fig.6a, donor V9, 20.570 weeks since 2nd dose of vaccination): 0.000%
- IFNg-producing cells among CD8 T cells (%) ([1]; Fig.6a, donor V9, 31.570 weeks since 2nd dose of vaccination): 0.930%
- IFNg-producing cells among CD8 T cells (%) ([1]; Fig.6a, donor V12, 1.000 weeks since 2nd dose of vaccination): 0.000%
- IFNg-producing cells among CD8 T cells (%) ([1]; Fig.6a, donor V12, 9.290 weeks since 2nd dose of vaccination): 0.000%
- IFNg-producing cells among CD8 T cells (%) ([1]; Fig.6a, donor V13, 9.000 weeks since 2nd dose of vaccination): 2.650%
- IFNg-producing cells among CD8 T cells (%) ([1]; Fig.6a, donor V13, 30.290 weeks since 2nd dose of vaccination): 3.770%
- IFNg-producing cells among CD8 T cells (%) ([1]; Fig.6a, donor V14, 2.000 weeks since 2nd dose of vaccination): 1.600%
- IFNg-producing cells among CD8 T cells (%) ([1]; Fig.6a, donor V14, 17.000 weeks since 2nd dose of vaccination): 1.540%
- IFNg-producing cells among CD8 T cells (%) ([1]; Fig.6a, donor V15, 6.860 weeks since 2nd dose of vaccination): 0.000%
- IFNg-producing cells among CD8 T cells (%) ([1]; Fig.6a, donor V15, 25.860 weeks since 2nd dose of vaccination): 0.380%
- IFNg-producing cells among CD8 T cells (%) ([1]; Fig.6a, donor V16, 8.860 weeks since 2nd dose of vaccination): 1.180%
- IFNg-producing cells among CD8 T cells (%) ([1]; Fig.6a, donor V16, 22.710 weeks since 2nd dose of vaccination): 0.000%
- IFNg-producing cells among CD8 T cells (%) ([1]; Fig.6a, donor V17, 4.140 weeks since 2nd dose of vaccination): 0.000%
- IFNg-producing cells among CD8 T cells (%) ([1]; Fig.6a, donor V17, 18.000 weeks since 2nd dose of vaccination): 0.000%
- IFNg-producing cells among CD8 T cells (%) ([1]; convalescent donor C2, 45.290 weeks since PCR-confirmed diagnosis, […], peptide-pulsed C1R-A2402): 1.019%
- IFNg-producing cells among CD8 T cells (%) ([1]; convalescent donor C3, 2.430 weeks since PCR-confirmed diagnosis, […], peptide-pulsed C1R-A2402): 0.261%
- IFNg-producing cells among CD8 T cells (%) ([1]; convalescent donor C4, 35.000 weeks since PCR-confirmed diagnosis, […], peptide-pulsed C1R-A2402): 0.317%
- IFNg-producing cells among CD8 T cells (%) ([1]; convalescent donor C5, 41.430 weeks since PCR-confirmed diagnosis, […], peptide-pulsed C1R-A2402): 0.327%
- IFNg-producing cells among CD8 T cells (%) ([1]; convalescent donor C6, 20.000 weeks since PCR-confirmed diagnosis, […], peptide-pulsed C1R-A2402): 1.170%
- IFNg-producing cells among CD8 T cells (%) ([1]; convalescent donor C7, 21.710 weeks since PCR-confirmed diagnosis, […], peptide-pulsed C1R-A2402): 0.230%
- IFNg-producing cells among CD8 T cells (%) ([1]; convalescent donor C8, 47.860 weeks since PCR-confirmed diagnosis, […], peptide-pulsed C1R-A2402): 0.410%
- IFNg-producing cells among CD8 T cells (%) ([1]; convalescent donor C9, 21.860 weeks since PCR-confirmed diagnosis, […], peptide-pulsed C1R-A2402): 0.000%
- IFNg-producing cells among CD8 T cells (%) ([1]; convalescent donor C10, 24.570 weeks since PCR-confirmed diagnosis, […], peptide-pulsed C1R-A2402): 1.220%
- IFNg-producing cells among CD8 T cells (%) ([1]; convalescent donor C11, 24.290 weeks since PCR-confirmed diagnosis, […], peptide-pulsed C1R-A2402): 0.000%
- IFN-γ-producing cells among CD8+ T cells (Fig. 1f) ([1]; donor V10, 0 weeks since 1st dose of vaccination, C1R-A2402 pre-pulsed with 1 μM peptide): 1.450%
- IFN-γ-producing cells among CD8+ T cells (Fig. 1f) ([1]; donor V10, 3 weeks since 1st dose of vaccination, C1R-A2402 pre-pulsed with 1 μM peptide): 0.420%
- IFN-γ-producing cells among CD8+ T cells (Fig. 1f) ([1]; donor V10, 5 weeks since 1st dose of vaccination, C1R-A2402 pre-pulsed with 1 μM peptide): 0.290%
- IFN-γ-producing cells among CD8+ T cells (Fig. 1f) ([1]; donor V10, 7 weeks since 1st dose of vaccination, C1R-A2402 pre-pulsed with 1 μM peptide): 0.000%
- IFN-γ-producing cells among CD8+ T cells (Fig. 1f) ([1]; donor V12, 0 weeks since 1st dose of vaccination, C1R-A2402 pre-pulsed with 1 μM peptide): 0.310%
- IFN-γ-producing cells among CD8+ T cells (Fig. 1f) ([1]; donor V12, 3 weeks since 1st dose of vaccination, C1R-A2402 pre-pulsed with 1 μM peptide): 0.000%
- IFN-γ-producing cells among CD8+ T cells (Fig. 1f) ([1]; donor V12, 5 weeks since 1st dose of vaccination, C1R-A2402 pre-pulsed with 1 μM peptide): 0.540%
- IFN-γ-producing cells among CD8+ T cells (Fig. 1f) ([1]; donor V12, 7 weeks since 1st dose of vaccination, C1R-A2402 pre-pulsed with 1 μM peptide): 0.000%
- IFN-γ-producing cells among CD8+ T cells (Fig. 1f) ([1]; donor V14, 0 weeks since 1st dose of vaccination, C1R-A2402 pre-pulsed with 1 μM peptide): 0.000%
- IFN-γ-producing cells among CD8+ T cells (Fig. 1f) ([1]; donor V14, 2 weeks since 1st dose of vaccination, C1R-A2402 pre-pulsed with 1 μM peptide): 0.000%
- IFN-γ-producing cells among CD8+ T cells (Fig. 1f) ([1]; donor V14, 5 weeks since 1st dose of vaccination, C1R-A2402 pre-pulsed with 1 μM peptide): 1.580%
- IFN-γ-producing cells among CD8+ T cells (Fig. 1f) ([1]; donor V14, 7 weeks since 1st dose of vaccination, C1R-A2402 pre-pulsed with 1 μM peptide): 0.000%
- number of individuals with specific T cells after the second vaccine dose ([1]; longitudinal analysis of 3 vaccinated individuals): one
- Freq of responder (%) ([1]; of 17 vaccinated HLA-A*24:02+ individuals (Fig. 4b)): 23.5%
- IFNg-producing cells among CD8 T cells (%) ([1]; vaccinated donor V1, 19.000 weeks since 2nd dose, […], C1R-A2402 pre-pulsed with 1 μM peptide): 0%
- IFNg-producing cells among CD8 T cells (%) ([1]; vaccinated donor V2, 9.570 weeks since 2nd dose, […], C1R-A2402 pre-pulsed with 1 μM peptide): 0.331%
- IFNg-producing cells among CD8 T cells (%) ([1]; vaccinated donor V3, 8.860 weeks since 2nd dose, […], C1R-A2402 pre-pulsed with 1 μM peptide): 0.073%
- IFNg-producing cells among CD8 T cells (%) ([1]; vaccinated donor V4, 10.430 weeks since 2nd dose, […], C1R-A2402 pre-pulsed with 1 μM peptide): 2.41%
- IFNg-producing cells among CD8 T cells (%) ([1]; vaccinated donor V5, 10.570 weeks since 2nd dose, […], C1R-A2402 pre-pulsed with 1 μM peptide): 0%
- IFNg-producing cells among CD8 T cells (%) ([1]; vaccinated donor V6, 9.570 weeks since 2nd dose, […], C1R-A2402 pre-pulsed with 1 μM peptide): 0.593%
- IFNg-producing cells among CD8 T cells (%) ([1]; vaccinated donor V7, 10.140 weeks since 2nd dose, […], C1R-A2402 pre-pulsed with 1 μM peptide): 0%
- IFNg-producing cells among CD8 T cells (%) ([1]; vaccinated donor V8, 9.860 weeks since 2nd dose, […], C1R-A2402 pre-pulsed with 1 μM peptide): 0%
- IFNg-producing cells among CD8 T cells (%) ([1]; vaccinated donor V9, 20.570 weeks since 2nd dose, […], C1R-A2402 pre-pulsed with 1 μM peptide): 0%
- IFNg-producing cells among CD8 T cells (%) ([1]; vaccinated donor V10, 2.000 weeks since 2nd dose, […], C1R-A2402 pre-pulsed with 1 μM peptide): 0.3%
- IFNg-producing cells among CD8 T cells (%) ([1]; vaccinated donor V11, 1.430 weeks since 2nd dose, […], C1R-A2402 pre-pulsed with 1 μM peptide): 0.076%
- IFNg-producing cells among CD8 T cells (%) ([1]; vaccinated donor V12, 1.000 weeks since 2nd dose, […], C1R-A2402 pre-pulsed with 1 μM peptide): 0%
- IFNg-producing cells among CD8 T cells (%) ([1]; vaccinated donor V13, 9.000 weeks since 2nd dose, […], C1R-A2402 pre-pulsed with 1 μM peptide): 2.649%
- IFNg-producing cells among CD8 T cells (%) ([1]; vaccinated donor V14, 2.000 weeks since 2nd dose, […], C1R-A2402 pre-pulsed with 1 μM peptide): 1.601%
- IFNg-producing cells among CD8 T cells (%) ([1]; vaccinated donor V15, 6.860 weeks since 2nd dose, […], C1R-A2402 pre-pulsed with 1 μM peptide): 0%
- IFNg-producing cells among CD8 T cells (%) ([1]; vaccinated donor V16, 8.860 weeks since 2nd dose, […], C1R-A2402 pre-pulsed with 1 μM peptide): 1.178%
- IFNg-producing cells among CD8 T cells (%) ([1]; vaccinated donor V17, 4.140 weeks since 2nd dose, […], C1R-A2402 pre-pulsed with 1 μM peptide): 0%
- time after the second vaccine dose for which epitope-specific memory CD8+ T cells were detectable / maintained ([1]; vaccinated individuals (8 individuals)): > 30 weeks
